Test results reported in patent US10329262B2, “Quinazolinone antibiotics” (priority 2013, dated 2019).

Columns and labels:
[1] = test system: S. haemolyticus ATCC 29970; test: MIC, CLSI broth microdilution, S. haemolyticus ATCC 29970; assay type: cell-based
Description: MICs were evaluated following the CLSI microdilution method in BBL™ Mueller-Hinton II broth (Wikler et al., Clinical Laboratory Standards Institute Document M7-A7, 29 (2009)). Briefly, two-fold serial dilutions of compound were prepared in triplicate in 96-well plates and inoculated with 5×10^5 cfu/mL of the bacterial suspension. Plates were incubated at 37° C. for 16-20 hours.

Plasma stability = assay type: in vitro ADME; settings: mouse, 37° C.
Description: Compound 2 (20 μM) was incubated in blank mouse plasma at 37° C. and aliquots were taken at specific time points and quenched with two volumes of acetonitrile containing internal standard. Samples were centrifuged and analyzed by reverse-phase UPLC.

[2] = Plasma protein binding, rapid equilibrium dialysis, mouse; assay type: in vitro ADME; settings: pH 7.4, mice, 6 h dialysis
Description: Aliquots from both chambers were quenched with 1:2 v/v acetonitrile containing an internal standard. The samples were concentrated to dryness on a miVac concentrator and the residue resuspended in 50:50 acetonitrile/water. Samples were analyzed by reverse-phase ultraperformance liquid chromatography (UPLC) with UV/Vis detection. Plasma protein binding of quinazolinone 2 was 98.0±0.04% in mice and 96.5±0.70% in humans.

N#Cc1ccc(/C=C/c2nc3ccccc3c(=O)n2-c2cccc(C(=O)O)c2)cc1.[Na] [Compound 2, Sodium (E)-3-(3-carboxyphenyl)-2-(4-cyanostyryl)quinazolin-4(3H)-one]
MIC ([1]; Staphylococcus haemolyticus, ATCC29970): 1 µg/mL | In vitro AB activity (MIC) ([1]; Table 2.1, S. haemolyticus ATCC 29970): 1 µg/mL | half-life at 20 μM (Plasma stability): 5.88 days | fraction unbound at 6 h, 10 μM [2]: 0.02
